{
  "source": "patent US20110191897A1",
  "about": "“Plants Tolerant to HPPD Inhibitor Herbicides” (Bayer CropScience AG, priority 2009, published 2011)",
  "key": {"[1]": {"tested_on": "T1 tobacco plants with FMP37e coding for the HPPD FMP37", "assay": "Glasshouse spray trial, herbicidal damage", "assay_type": "in vivo, Nicotiana tabacum", "settings": "100 gAl/ha, 7DAT", "method": "(§1) T0 Tobacco plants containing either the gene from Arabidopsis coding for HPPD or the gene FMP37e from Blepharisma japonicum coding for FMP37 HPPD, mentioned above (Example 3), were transferred to the glasshouse (28/20° C.), to develop further and produce seeds. Those seeds were harvested and put on soil (ED73 mixed with sand and osmocote Pro) to germinate in the glasshouse (28/20° C.). Three to four weeks later, plantlets were transferred to single pots containing the soil mentioned above. Two weeks later, plants of a size 4-6 cm diameter were sprayed with either • tembotrione at 100 Al/ha prepared from a WP20 (wettable powder 20%) formulation supplemented with ammonium sulfate and methyl ester raps oil, or • isoxaflutole at 100 Al/ha prepared from a WP20 formulation supplemented with ammonium sulfate and methyl ester raps oil, or • bicyclopyrone at 100 gAl/ha prepared from a WP20 formulation supplemented with ammonium sulfate and methyl ester raps oil, or • “blind formulation” made from a WP20 formulation without active ingredient (Al) supplemented with ammonium sulfate and methyl ester raps oil, and were then transferred to a growth chamber with adequate light conditions (20000Lux)."}, "[2]": {"tested_on": "T1 tobacco plants with Arabidopsis HPPD", "assay": "Glasshouse spray trial, herbicidal damage", "assay_type": "in vivo, Nicotiana tabacum", "settings": "100 gAl/ha, 7DAT", "method": "as §1"}, "wild-type soybean shoots": {"tested_on": "wild-type soybean shoots", "assay": "Soybean shoot greening on isoxaflutole selection", "assay_type": "in vivo", "settings": "same amount of isoxaflutole", "from_the_text": "(§2) Soybean transformation is achieved using methods well known in the art, such as the one described using the Agrobacterium tumefaciens mediated transformation soybean half-seed explants described by Paz et al. (2006, Plant cell Rep. 25:206). Transformants were identified using Isoxaflutole as selection marker. The appearance of green shoots was observed, and documented as an indicator of tolerance to the herbicide isoxaflutole."}, "[3]": {"tested_on": "transgenic soybean shoots (FMP37)", "assay": "Soybean shoot greening on isoxaflutole selection", "assay_type": "in vivo", "settings": "isoxaflutole as selection marker", "from_the_text": "as §2"}},
  "note": "Values joined by “and” are separate entries in the source; they are usually repeats but may differ in a detail not shown here. Equal entries are not always repeated.",
  "data": [
    {"compound": "CS(=O)(=O)c1cc(C(F)(F)F)ccc1C(=O)c1cnoc1C1CC1", "note": "[Isoxaflutole, (5-cyclopropyl-4-isoxazolyl)[2-(methylsulfonyl)-4-(trifluoromethyl)phenyl]methanone]", "values": [
      {"measurement": "% injury", "setting": "[1]; line 113, individual plants", "result": "30% (4×) and 50%"},
      {"measurement": "% injury", "setting": "[1]; line 207, individual plants", "result": 40, "unit": "%"},
      {"measurement": "% injury", "setting": "[2]; line 252, individual plants", "result": 99, "unit": "%"},
      {"measurement": "% injury", "setting": "[2]; line 327, individual plants", "result": "98% and 99% and 100% (4×)"},
      {"measurement": "appearance of shoots", "setting": "wild-type soybean shoots", "result": "entirely bleached"},
      {"measurement": "share of transgenic tested shoots showing normal greening", "setting": "[3]", "result": 1.5, "unit": "%"}
    ]}
  ]
}
